The values below come from paper PMC10404681, “Intrinsic catalytic properties of histone H3 lysine-9 methyltransferases preserve monomethylation levels under low S-adenosylmethionine” (The Journal of Biological Chemistry, 2023).

Test [1] has as its target T1, EHMT1 catalytic domain (Homo sapiens, UniProt Q9H9B1).
T1 construct: EHMT1 = 982 to 1266; host or cells: Rosetta E. coli
T1 sequence (Q9H9B1 982-1266): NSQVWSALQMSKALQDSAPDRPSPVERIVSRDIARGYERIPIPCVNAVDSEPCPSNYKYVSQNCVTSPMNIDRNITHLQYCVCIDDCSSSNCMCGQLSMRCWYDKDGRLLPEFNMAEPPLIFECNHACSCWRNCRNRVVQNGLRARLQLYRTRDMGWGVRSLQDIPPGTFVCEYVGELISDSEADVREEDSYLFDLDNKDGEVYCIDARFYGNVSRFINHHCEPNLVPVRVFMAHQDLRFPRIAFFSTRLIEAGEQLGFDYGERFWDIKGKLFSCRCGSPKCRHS
Nature of the test: Radiometric EZ-tip methyltransferase assay, steady-state kinetics, EHMT1. To be noted: SAM varied 0.1–100 μM, EHMT1 25 nM, pH 7.9, 30 °C, n = 3, SD. Type of test: biochemical, H. sapiens. From the text:
(§1) The H. sapiens EHMT1 catalytic subunit (Addgene plasmid #51314) and H. sapiens SUV39H2 catalytic subunit (Addgene plasmid #25115) E. coli expression plasmids used in this study were acquired from Addgene, made possible through a gift by Cheryl Arrowsmith. The H. sapiens EHMT2 catalytic subunit E. coli expression plasmid used in this study was provided by the laboratory of Peter W. Lewis at the University of Wisconsin-Madison. All remaining histone methyltransferase expression plasmids were generated for this study and will be made freely available from Addgene.
(§2) Michaelis-Menten saturation curves were generated under steady-state conditions with the non-titrated component concentration being present at ≥5× KM specific to each enzyme. 1 × 10^5 CPM values were provided by [methyl-^3H] SAM in each reaction. Reaction times and enzyme concentrations were optimized for each HMT to ensure substrate turnover remained below 20%. […] Enzyme concentrations are calculated for the monomeric form. Reactions were incubated at 30 °C for 20 min before quenching with TFA for a final concentration of 2% v/v TFA. […] The eluates were added to 2 ml of Ultima Gold LSC Cocktail (Sigma-Aldrich) and counted on a scintillation counter (PerkinElmer). […]

For test [2], the target named is T2, SUV39H1 (Homo sapiens, UniProt O43463).
T2 construct: made in house; host or cells: Rosetta E. coli (plasmid generated for this study)
T2 sequence (O43463 1-412): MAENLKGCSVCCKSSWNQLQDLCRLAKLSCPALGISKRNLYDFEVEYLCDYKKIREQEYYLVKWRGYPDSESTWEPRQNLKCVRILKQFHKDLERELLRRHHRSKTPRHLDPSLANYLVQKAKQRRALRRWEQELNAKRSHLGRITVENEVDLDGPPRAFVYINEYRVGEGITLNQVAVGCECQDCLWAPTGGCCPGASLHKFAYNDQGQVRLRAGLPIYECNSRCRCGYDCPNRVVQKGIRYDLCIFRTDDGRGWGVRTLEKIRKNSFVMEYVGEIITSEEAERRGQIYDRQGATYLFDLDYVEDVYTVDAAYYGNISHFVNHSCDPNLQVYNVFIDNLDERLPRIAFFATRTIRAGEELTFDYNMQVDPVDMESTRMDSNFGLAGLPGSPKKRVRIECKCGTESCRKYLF
Description: Radiometric EZ-tip methyltransferase assay, steady-state kinetics, SUV39H1. It is filed as biochemical. The note with it: SAM varied 0.1–100 μM, SUV39H1 100 nM, pH 7.9, 30 °C, n = 3, SD.
Excerpt: as §1, §2

Test [3] addresses T3, SUV39H2 catalytic domain (Homo sapiens, UniProt Q9H5I1).
T3 construct: host or cells: Rosetta E. coli
Nature of the test: Radiometric EZ-tip methyltransferase assay, steady-state kinetics, SUV39H2. Type of test: biochemical, H. sapiens. To be noted: SAM varied 0.1–100 μM, SUV39H2 25 nM, pH 7.9, 30 °C, n = 3, SD.
Excerpt: as §1, §2

Test [4] addresses T4, EHMT2 catalytic domain (Homo sapiens, UniProt Q96KQ7).
T4 construct: EHMT2 = 913 to 1193; made in house; host or cells: Rosetta E. coli (plasmid from the laboratory of Peter W. Lewis)
T4 sequence (Q96KQ7 913-1193): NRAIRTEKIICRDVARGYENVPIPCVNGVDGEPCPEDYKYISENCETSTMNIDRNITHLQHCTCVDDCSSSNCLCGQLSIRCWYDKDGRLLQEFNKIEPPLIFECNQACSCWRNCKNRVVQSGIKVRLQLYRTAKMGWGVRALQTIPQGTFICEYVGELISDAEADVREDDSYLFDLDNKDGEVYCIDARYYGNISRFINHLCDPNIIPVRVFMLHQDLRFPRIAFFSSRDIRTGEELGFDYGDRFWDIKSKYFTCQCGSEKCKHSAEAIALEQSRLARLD
Description: Radiometric EZ-tip methyltransferase assay, steady-state kinetics, EHMT2. It is filed as biochemical, H. sapiens. To be noted: SAM varied 0.1–100 μM, EHMT2 25 nM, pH 7.9, 30 °C, n = 3, SD.
Excerpt: as §1, §2

Setting [5] is: fixed H3K9me1 peptide H3(1–17) 50 μM.
The mark [6] stands for this setting: fixed H3K9un peptide H3(1–17) 50 μM.

T3 sequence (Q9H5I1 162-410): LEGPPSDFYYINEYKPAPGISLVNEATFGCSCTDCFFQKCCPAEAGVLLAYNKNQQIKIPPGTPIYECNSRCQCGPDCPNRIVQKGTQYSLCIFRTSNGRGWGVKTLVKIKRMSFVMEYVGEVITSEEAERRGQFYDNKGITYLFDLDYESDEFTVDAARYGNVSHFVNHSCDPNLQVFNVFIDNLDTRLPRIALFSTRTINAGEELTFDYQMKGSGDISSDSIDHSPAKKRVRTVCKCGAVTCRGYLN

On to `C[S+](CC[C@H](N)C(=O)[O-])C[C@H]1O[C@@H](n2cnc3c(N)ncnc32)[C@H](O)[C@@H]1O` (some centres unmarked) [SAM, S-adenosylmethionine], for which the “kcat/KM, SAM” value in test [1] (setting [5]) is 5000 M⁻¹ s⁻¹; in test [1] (setting [6]), 16800 M⁻¹ s⁻¹; in test [2] (setting [5]), 500 M⁻¹ s⁻¹; in test [2] (setting [6]), 1670 M⁻¹ s⁻¹; in test [3] (setting [5]) it was 6000 M⁻¹ s⁻¹; in test [3] (setting [6]) it was 14300 M⁻¹ s⁻¹. Further, the “kcat/KM, SAM” value is 2170 M⁻¹ s⁻¹ in test [4] (setting [5]) and 6670 M⁻¹ s⁻¹ in test [4] (setting [6]).
